Several values for one entry are separate records, joined by “and”; a condition that tells them apart may be missing. Identical values can stand only once. Toxic doses and inconclusive results are not listed. Cut-off read from the data, not from the text of the source: active = T/C of 150% or more; inactive = T/C below 125%.
System: L1210 leukemia ip in BDF1 mice, survival T/C
Assay: NCI In Vivo Anticancer Drug Screen. Data for tumor model L1210 Leukemia (intraperitoneal) in B6D2F1 (BDF1) mice
Settings: endpoint: mean survival time, higher = longer survival
Procedure, shortened: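 Survival endpoint. Drug-treated group vs vehicle group, expressed as T divided by C. Tumor passaged by transplantation.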

[1] = dose: 100.0 mg/kg/injection, schedule: Q04DX003 (ip), vehicle: saline with Tween-80
[2] = dose: 200.0 mg/kg/injection, schedule: Q04DX003 (ip), vehicle: saline with Tween-80
[3] = dose: 400.0 mg/kg/injection, schedule: Q04DX003 (ip), vehicle: saline with Tween-80
[4] = dose: 100.0 mg/kg/injection, schedule: Q01DX001 (ip), vehicle: carboxymethylcellulose (CMC)
[5] = dose: 200.0 mg/kg/injection, schedule: Q01DX001 (ip), vehicle: carboxymethylcellulose (CMC)
[6] = dose: 400.0 mg/kg/injection, schedule: Q01DX001 (ip), vehicle: carboxymethylcellulose (CMC)
[7] = dose: 100.0 mg/kg/injection, schedule: Q01DX009 (ip), vehicle: saline with Tween-80
[8] = dose: 200.0 mg/kg/injection, schedule: Q01DX009 (ip), vehicle: saline with Tween-80
[9] = dose: 100.0 mg/kg/injection, schedule: Q01DX009 (ip), vehicle: saline
[10] = dose: 100.0 mg/kg/injection, schedule: Q04DX003 (ip), vehicle: saline
[11] = dose: 200.0 mg/kg/injection, schedule: Q01DX009 (ip), vehicle: saline
[12] = dose: 200.0 mg/kg/injection, schedule: Q04DX003 (ip), vehicle: saline
[13] = dose: 400.0 mg/kg/injection, schedule: Q01DX009 (ip), vehicle: saline
[14] = dose: 400.0 mg/kg/injection, schedule: Q04DX003 (ip), vehicle: saline
[15] = dose: 100.0 mg/kg/injection, schedule: Q01DX001 (ip), vehicle: saline
[16] = dose: 200.0 mg/kg/injection, schedule: Q01DX001 (ip), vehicle: saline
[17] = dose: 400.0 mg/kg/injection, schedule: Q01DX001 (ip), vehicle: saline
[18] = dose: 25.0 mg/kg/injection, schedule: Q01DX009 (ip), vehicle: saline
[19] = dose: 50.0 mg/kg/injection, schedule: Q01DX009 (ip), vehicle: saline
[20] = dose: 400.0 mg/kg/injection, schedule: Q01DX009 (ip), vehicle: saline with Tween-80

Measured: T/C

Cc1c(Cl)c(Cl)c(Cl)c(Cl)c1Cl
inactive: [1] 101 % of control | [2] 95 % of control | [3] 95 % of control

CCCCCCCCCC(=O)N(CC)CC
inactive: dose: 200.0 mg/kg/injection, schedule: Q04DX002 (ip), vehicle: saline 111 % of control | dose: 400.0 mg/kg/injection, schedule: Q04DX002 (ip), vehicle: saline 92 % of control

CSc1ccc(NC(=O)Nc2cc(Cl)c(Cl)cc2C)cc1
inactive: dose: 50.0 mg/kg/injection, schedule: Q01DX009 (ip), vehicle: Klucel (hydroxypropylcellulose) (HPC) 87 % of control | dose: 100.0 mg/kg/injection, schedule: Q01DX009 (ip), vehicle: Klucel (hydroxypropylcellulose) (HPC) 87 % of control | dose: 200.0 mg/kg/injection, schedule: Q01DX009 (ip), vehicle: Klucel (hydroxypropylcellulose) (HPC) 86 % of control and 92 % of control | dose: 400.0 mg/kg/injection, schedule: Q01DX009 (ip), vehicle: Klucel (hydroxypropylcellulose) (HPC) 86 % of control

O=C1CCC/C1=C/c1ccccc1
inactive: [4] 97 % of control | dose: 100.0 mg/kg/injection, schedule: Q04DX003 (ip), vehicle: Klucel (hydroxypropylcellulose) (HPC) 93 % of control | [5] 91 % of control | dose: 200.0 mg/kg/injection, schedule: Q04DX003 (ip), vehicle: Klucel (hydroxypropylcellulose) (HPC) 95 % of control | [6] 91 % of control | dose: 400.0 mg/kg/injection, schedule: Q04DX003 (ip), vehicle: Klucel (hydroxypropylcellulose) (HPC) 88 % of control

Cn1c(CCl)nc2c1c(=O)[nH]c(=O)n2C
inactive: dose: 100.0 mg/kg/injection, schedule: Q01DX001 (ip), vehicle: other 95 % of control

Cc1ccc(CSC(=N)N)cc1
inactive: [4] 104 % of control

c1ccc([Si](c2ccccc2)(c2cccs2)c2cccs2)cc1
inactive: [7] 103 % of control | [8] 95 % of control

OC1CC2C=C(c3ccccc3)C1C2 (stereo not drawn)
inactive: [1] 96 % of control | [2] 93 % of control | [3] 88 % of control

CN(C)CCNS(=O)(=O)N(C)C
inactive: [9] 102 % of control | [10] 95 % of control | [11] 102 % of control | [12] 100 % of control | [13] 108 % of control | [14] 97 % of control

O=C1C(=O)c2ccccc2-c2ccccc21.O=C1C(=O)c2ccccc2-c2ccccc21.[Hg]
inactive: dose: 6.25 mg/kg/injection, schedule: Q04DX003 (ip), vehicle: saline with Tween-80 95 % of control

Cc1cc(C(=O)O)c(C)n1-c1ccccc1
inactive: dose: 75.0 mg/kg/injection, schedule: Q01DX009 (ip), vehicle: Klucel (hydroxypropylcellulose) (HPC) 100 % of control | dose: 150.0 mg/kg/injection, schedule: Q01DX009 (ip), vehicle: Klucel (hydroxypropylcellulose) (HPC) 95 % of control | dose: 300.0 mg/kg/injection, schedule: Q01DX009 (ip), vehicle: Klucel (hydroxypropylcellulose) (HPC) 92 % of control

COc1ccc(CC(N)C(=O)N2CC(n3cnc4c(N(C)C)ncnc43)CC2CO)cc1 (stereo not drawn)
inactive: dose: 25.0 mg/kg/injection, schedule: Q04DX002 (ip), vehicle: saline 98 % of control | dose: 50.0 mg/kg/injection, schedule: Q04DX002 (ip), vehicle: saline 119 % of control | dose: 100.0 mg/kg/injection, schedule: Q04DX002 (ip), vehicle: saline 105 % of control

CC1(C)C2CCC1(C)C(OC(=O)C1OC(O)C(O)C(O)C1O)C2 (stereo not drawn)
inactive: [1] 102 % of control | [2] 104 % of control | [3] 102 % of control

CC(=O)Nc1nc2ncc(CCN(C)c3ccc(C(=O)O)cc3)nc2c(=O)[nH]1
inactive: dose: 75.0 mg/kg/injection, schedule: Q01DX001 (ip), vehicle: saline 102 % of control | dose: 150.0 mg/kg/injection, schedule: Q01DX001 (ip), vehicle: saline 101 % of control

CCCCCCCCCCCCC1C2CCCCC2CC2CCCCC21 (stereo not drawn)
inactive: dose: 100.0 mg/kg/injection, schedule: Q01DX001 (ip), vehicle: saline with Tween-80 94 % of control | dose: 200.0 mg/kg/injection, schedule: Q01DX001 (ip), vehicle: saline with Tween-80 94 % of control | dose: 400.0 mg/kg/injection, schedule: Q01DX001 (ip), vehicle: saline with Tween-80 96 % of control

Clc1cccc2ccc(-c3cc4ccccc4s3)nc12
inactive: dose: 50.0 mg/kg/injection, schedule: Q01DX001 (ip), vehicle: saline 102 % of control | [15] 101 % of control | [16] 101 % of control | [17] 106 % of control

Cc1cn(C2OC(CO)C(O)C(O)C2O)c(=O)[nH]c1=O (stereo not drawn)
inactive: [15] 97 % of control | [16] 97 % of control | [17] 94 % of control

O=C(CNc1ccc2c(c1)Cc1cc(Br)ccc1-2)c1ccc(Br)cc1
inactive: [4] 105 % of control | [5] 111 % of control | [6] 105 % of control

CC(=O)C1=CC(=O)c2ccccc2C1=O
inactive: dose: 20.0 mg/kg/injection, schedule: Q01DX001 (ip), vehicle: water 103 % of control | dose: 40.0 mg/kg/injection, schedule: Q01DX001 (ip), vehicle: water 95 % of control | dose: 80.0 mg/kg/injection, schedule: Q01DX001 (ip), vehicle: water 93 % of control

C#CCOCC1CN(C)C(=O)O1 (stereo not drawn)
inactive: [18] 90 % of control | [19] 110 % of control | dose: 50.0 mg/kg/injection, schedule: Q04DX003 (ip), vehicle: saline 103 % of control | [9] 100 % of control | [10] 106 % of control | [11] 117 % of control | [12] 103 % of control | [13] 100 % of control | [14] 92 % of control

CCOC(CCc1c(-c2ccc([N+](=O)[O-])cc2)nc(N)[nH]c1=O)OCC
inactive: [7] 95 % of control | [8] 111 % of control | [20] 95 % of control

OC1(Cc2ccccc2)CCCCCC1
inactive: dose: 100.0 mg/kg/injection, schedule: Q01DX005 (ip), vehicle: other 118 % of control | dose: 100.0 mg/kg/injection, schedule: Q01DX009 (ip), vehicle: other 103 % of control | dose: 200.0 mg/kg/injection, schedule: Q01DX005 (ip), vehicle: other 93 % of control | dose: 200.0 mg/kg/injection, schedule: Q01DX009 (ip), vehicle: other 118 % of control | dose: 400.0 mg/kg/injection, schedule: Q01DX005 (ip), vehicle: other 93 % of control | dose: 400.0 mg/kg/injection, schedule: Q01DX009 (ip), vehicle: other 100 % of control

C[N+](C)(C)Cc1ccco1
inactive: [18] 103 % of control | [19] 93 % of control | [9] 95 % of control and 90 % of control

CCOC(=S)Nc1ccccc1[N+](=O)[O-]
inactive: dose: 100.0 mg/kg/injection, schedule: Q04DX002 (ip), vehicle: gum acacia 102 % of control | dose: 200.0 mg/kg/injection, schedule: Q04DX002 (ip), vehicle: gum acacia 105 % of control | dose: 400.0 mg/kg/injection, schedule: Q04DX002 (ip), vehicle: gum acacia 102 % of control

Nc1nc(Cl)[nH]c1-c1ncn[nH]1
inactive: [15] 92 % of control | [16] 106 % of control

Cc1cccc(NC(=O)c2ccccc2Cl)c1C
inactive: [7] 103 % of control | [1] 95 % of control | [8] 95 % of control | [2] 93 % of control | [20] 104 % of control | [3] 91 % of control
